Measured values from US9789080B2, “Ophthalmic formulations of mycophenolic acid” (INSITE VISION INCORPORATED, priority 2015, dated 2017).

Key:
[1] = Merck Index 14th Ed. 2006, monograph no. 6327; cited from earlier work
[2] = dissolution of active ingredient in aqueous medium as a function of pH; assay type: physicochemical; details: pH of aqueous medium adjusted to greater than 7.0
Description: In an embodiment of the present disclosure, the pH of an ophthalmic formulation including mycophenolic acid or salt thereof in an aqueous medium with a reduced level of oxygen dissolved in the ophthalmic formulation can be adjusted to a pH of greater than 7.0, e.g., at least about 7.4, such as at least about 7.8. In an embodiment, the ophthalmic formulation of the present disclosure has a pH in a range of 7.4 to 7.8 with a specification of ±0.3 pH units.

dissolution of the active ingredient [2]: facilitates dissolution
Structure (SMILES): COc1c(C)c2c(c(O)c1C/C=C(\C)CCC(=O)O)C(=O)OC2 [mycophenolic acid]
solubility in cold water [1]: almost insoluble
